Structures can show the parent of a compound that is named as a salt. Where two headings read alike, the source gives them in different places.

Test [1] deals with T1, SARS-CoV-2 PLpro (nsp3 1564–1878) (Severe acute respiratory syndrome coronavirus 2, UniProt P0DTD1). Put plainly: biochemical. The arrangement: FRET-quenched peptide (Pro3) cleavage by PLpro, 10 min pre-incubation, slope over 20 min, normalised to no-compound control. The note with it: low concentration screen, read-out: % of control remaining.
Test [2] concerns the target T1, SARS-CoV-2 PLpro (nsp3 1564–1878). Put plainly: biochemical. The arrangement: FRET-quenched peptide (Pro3) cleavage by PLpro, 10 min pre-incubation, slope over 20 min, normalised to no-compound control. The following applies: high concentration screen, read-out: % of control remaining.

Turning to `Cc1noc(NS(=O)(=O)c2ccc(N)cc2)c1C` [Sulfisoxazole], the figures for the remaining activity at 1.25 µM in test [1] (Well no.=4664), in test [1] (Well no.=7548) and in test [1] (Well no.=8283) were 95.8%, 104% and 97.8%, respectively. For the same compound, the remaining activity at 3.75 µM in test [2] (Well no.=4664) was 97.2%; in test [2] (Well no.=7548), 101%; in test [2] (Well no.=8283) it was 97.6%.
`CSc1ccc(/C=C2/C(C)=C(CC(=O)O)c3cc(F)ccc32)cc1` [Sulindac sulfide]: in test [1] (Well no.=6089), the remaining activity at 1.25 µM turned out to be 96.2%. Besides, the remaining activity at 3.75 µM in test [2] (Well no.=6089) worked out at 93.8%.
For `CC1=C(CC(=O)O)c2cc(F)ccc2/C1=C\c1ccc(S(C)(=O)=O)cc1` [Sulindac sulfone], the remaining activity at 1.25 µM in test [1] (Well no.=1500) was found to be 95.3%. Also, the remaining activity at 3.75 µM in test [2] (Well no.=1500) came out at 96.6%.
On to `CC1=C(CC(=O)O)c2cc(F)ccc2/C1=C\c1ccc([S+](C)[O-])cc1` (stereo not drawn) [Sulindac], for which the remaining activity at 1.25 µM turned out to be 102% in test [1] (Well no.=1270) and 98.1% in test [1] (Well no.=1756). Also, the remaining activity at 3.75 µM in test [2] (Well no.=1270) came to 105%; in test [2] (Well no.=1756), 96.7%.
Consider `CCN1CCCC1CNC(=O)c1cc(S(N)(=O)=O)ccc1OC` (stereo not drawn) [Sulpiride], for which the remaining activity at 1.25 µM in test [1] (Well no.=6423) is 99.1%. Besides, the remaining activity at 3.75 µM in test [2] (Well no.=6423) worked out at 97.9%.
For the compound `CN[C@@H]1Cc2cccc3[nH]c(=O)n(c23)C1` [Sumanirole maleate], in test [1] (Well no.=5386), the remaining activity at 1.25 µM turned out to be 99.1%. In test [2] (Well no.=5386), the remaining activity at 3.75 µM turned out to be 104%.
As for `CNS(=O)(=O)Cc1ccc2[nH]cc(CCN(C)C)c2c1` [Sumatriptan (succinate)], the remaining activity at 1.25 µM in test [1] (Well no.=6379) is 104%. In test [2] (Well no.=6379), the remaining activity at 3.75 µM was found to be 91%.
For the compound `CNS(=O)(=O)Cc1ccc2[nH]cc(CCN(C)C)c2c1` [Sumatriptan Succinate], the remaining activity at 1.25 µM in test [1] (Well no.=2085) came out at 96.9%. For the same compound, the remaining activity at 3.75 µM in test [2] (Well no.=2085) was 97.6%.
As to `CCN(CC)CCNC(=O)c1c(C)[nH]c(/C=C2\C(=O)Nc3ccc(F)cc32)c1C` [Sunitinib], the remaining activity at 1.25 µM in test [1] (Well no.=2703) was 102%. For the same compound, the remaining activity at 3.75 µM in test [2] (Well no.=2703) was found to be 100%.
As to `O=S(=O)(O)c1ccc(N=Nc2c(O)ccc3cc(S(=O)(=O)O)ccc23)cc1` [Sunset Yellow FCF], in test [1] (Well no.=8500), the remaining activity at 1.25 µM is 95.1%. In addition, the remaining activity at 3.75 µM in test [2] (Well no.=8500) was 92.1%.
`CCOCC(O)COc1ccc(NC(=O)CC[S+](C)C)cc1` (stereo not drawn) [Suplatast tosylate]: the remaining activity at 1.25 µM in test [1] (Well no.=4714) was 107%. The remaining activity at 3.75 µM in test [2] (Well no.=4714) is 106%.
Consider `Cc1ccc(C(=O)Nc2ccc(S(=O)(=O)O)c3cc(S(=O)(=O)O)cc(S(=O)(=O)O)c23)cc1NC(=O)c1cccc(NC(=O)Nc2cccc(C(=O)Nc3cc(C(=O)Nc4ccc(S(=O)(=O)O)c5cc(S(=O)(=O)O)cc(S(=O)(=O)O)c45)ccc3C)c2)c1` [Suramin (sodium salt)], for which, in test [1] (Well no.=8141), the remaining activity at 1.25 µM was 105%. Besides, the remaining activity at 3.75 µM in test [2] (Well no.=8141) turned out to be 98.9%.
As to `Cc1ccc(C(=O)Nc2ccc(S(=O)(=O)O)c3cc(S(=O)(=O)O)cc(S(=O)(=O)O)c23)cc1NC(=O)c1cccc(NC(=O)Nc2cccc(C(=O)Nc3cc(C(=O)Nc4ccc(S(=O)(=O)O)c5cc(S(=O)(=O)O)cc(S(=O)(=O)O)c45)ccc3C)c2)c1` [Suramin], the remaining activity at 1.25 µM in test [1] (Well no.=1622) was 99.2%. Besides, the remaining activity at 3.75 µM in test [2] (Well no.=1622) was 96.7%.
On to `O[C@H]1[C@H]2[C@H](O)CCCN2C[C@H]1O` [Swainsonine], for which the remaining activity at 1.25 µM in test [1] (Well no.=3176) was determined as 97.3%. Besides, the remaining activity at 3.75 µM in test [2] (Well no.=3176) stood at 100%.
Turning to `O=[N+]([O-])/C=C/c1ccc2c(c1)OCO2` [Syk Inhibitor III], in test [1] (Well no.=2599), the remaining activity at 1.25 µM came to 97.9%. The remaining activity at 3.75 µM in test [2] (Well no.=2599) amounted to 97.6%.
For `NCCNc1ncc(C(N)=O)c(Nc2cccc(C(F)(F)F)c2)n1` [Syk Inhibitor II], the remaining activity at 1.25 µM in test [1] (Well no.=2597) was 99.7%. In test [2] (Well no.=2597), the remaining activity at 3.75 µM came out at 101%.
Regarding `Cn1cc(/C=C2\C(=O)Nc3ccc(S(N)(=O)=O)cc32)c2ccccc21` [Syk Inhibitor], the remaining activity at 1.25 µM in test [1] (Well no.=2595) worked out at 96.8%. Further, the remaining activity at 3.75 µM in test [2] (Well no.=2595) is 96.7%.
Take `CNCC(O)c1ccc(O)cc1` (stereo not drawn) [Synephrine (hydrochloride)]: in test [1] (Well no.=6699), the remaining activity at 1.25 µM was 100%. In addition, the remaining activity at 3.75 µM in test [2] (Well no.=6699) was 101%.
For `CNCC(O)c1ccc(O)cc1` (stereo not drawn) [Synephrine HCl], in test [1] (Well no.=4900), the remaining activity at 1.25 µM came out at 95.6%. In addition, in test [2] (Well no.=4900), the remaining activity at 3.75 µM was determined as 91.7%.
Turning to `CCOC(=O)Oc1c(OC)cc(C(=O)O[C@@H]2C[C@@H]3CN4CCc5c([nH]c6cc(OC)ccc56)[C@H]4C[C@@H]3[C@H](C(=O)OC)[C@H]2OC)cc1OC` [Syrosingopine], the remaining activity at 1.25 µM in test [1] (Well no.=3310) came out at 100%. The remaining activity at 3.75 µM in test [2] (Well no.=3310) came to 98.6%.
On to `Cc1cc(C(=O)Nc2cccc(C(=O)Nc3cccc(C(F)(F)F)c3)c2)on1` [T56-LIMKi], for which the remaining activity at 1.25 µM in test [1] (Well no.=5920) came to 101%. Besides, the remaining activity at 3.75 µM in test [2] (Well no.=5920) is 98.1%.
As to `O=C(Nc1ccncc1)c1cc([N+](=O)[O-])ccc1Cl` [T0070907], in test [1] (Well no.=4833), the remaining activity at 1.25 µM came out at 103%. Besides, in test [2] (Well no.=4833), the remaining activity at 3.75 µM stood at 106%.
For the compound `COC(=O)c1c(-c2cc(OC)c(OC)c(OC)c2)c2ccnc(OCc3ncccn3)c2c(=O)n1Cc1ccnc(C)c1` [T-0156], the remaining activity at 1.25 µM in test [1] (Well no.=1230) is 102%. Also, the remaining activity at 3.75 µM in test [2] (Well no.=1230) was determined as 102%.
As for `COc1cn(-c2ccc(-n3cccn3)cc2F)nc(-c2ccnn2-c2ccccc2)c1=O` [TAK-063], the remaining activity at 1.25 µM in test [1] (Well no.=8728) stood at 98.2%. Moreover, the remaining activity at 3.75 µM in test [2] (Well no.=8728) was found to be 94.2%.
As for `CC(=O)N1CCC(C(=O)N(CCCN2CCC(Cc3ccc(C(N)=O)cc3)CC2)c2ccc(C)c(Cl)c2)CC1` [TAK-220], the remaining activity at 1.25 µM in test [1] (Well no.=8363) was 94.6%. The remaining activity at 3.75 µM in test [2] (Well no.=8363) came out at 92.9%.
Take `NS(=O)(=O)OC[C@H]1C[C@@H](Nc2ccnc3cc(-c4cccc(SC(F)(F)F)c4)nn23)[C@H](O)[C@@H]1O` [TAK-243]: the remaining activity at 1.25 µM in test [1] (Well no.=7078) amounted to 102%. Also, the remaining activity at 3.75 µM in test [2] (Well no.=7078) was determined as 97%.
For `CC(C)(O)CC(=O)NCCn1ccc2ncnc(Nc3ccc(Oc4cccc(C(F)(F)F)c4)c(Cl)c3)c21` [TAK-285], the remaining activity at 1.25 µM in test [1] (Well no.=4743) stood at 102%. In test [2] (Well no.=4743), the remaining activity at 3.75 µM was found to be 104%.
In the case of `CNCc1cc(-c2ccccc2F)n(S(=O)(=O)c2cccnc2)c1` [TAK-438], the remaining activity at 1.25 µM in test [1] (Well no.=4794) turned out to be 91.8%. The remaining activity at 3.75 µM in test [2] (Well no.=4794) came to 93%.
Turning to `CNC(=O)c1ccc2cc([C@@]3(O)CCn4cncc43)ccc2c1` [TAK-700 (Orteronel)], the remaining activity at 1.25 µM in test [1] (Well no.=4725) came to 98.2%. Also, the remaining activity at 3.75 µM in test [2] (Well no.=4725) was determined as 96.7%.
With `CCc1nc(-c2cccc(C)c2)c(-c2ccnc(NC(=O)c3ccccc3)c2)s1` [TAK-715], the remaining activity at 1.25 µM in test [1] (Well no.=2751) is 99.2%. The remaining activity at 3.75 µM in test [2] (Well no.=2751) is 104%.

The values above are taken from publication PMC8286840, “Identifying SARS-CoV-2 antiviral compounds by screening for small molecule inhibitors of Nsp3 papain-like protease” (Biochemical Journal, 2021).
